Where “and” joins values, the source holds several entries; their conditions need not be identical. Equal values may be shown once.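 A five-concentration, 48-hour dose response in 96-well plates underlies each endpoint, interpolated linearly between surrounding concentrations. Abbreviation: GI50, concentration required for 50% inhibition of growth. Definition used: TGI = concentration required for complete inhibition of growth.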
How the values were obtained:
Test in all cases: NCI-60 cell line screen, 48 h
786-0 renal = system: 786-0 renal
A549 NSCLC = system: A549 NSCLC
ACHN renal = system: ACHN renal
HCT-15 colon = system: HCT-15 colon
SNB-19 CNS = system: SNB-19 CNS
SR leukemia = system: SR leukemia
DU-145 prostate = system: DU-145 prostate
HS 578T breast = system: HS 578T breast
MDA-MB-231 breast = system: MDA-MB-231 breast
SK-OV-3 ovarian = system: SK-OV-3 ovarian

Compound	TGI (786-0 renal)	TGI (A549 NSCLC)	TGI (ACHN renal)	TGI (HCT-15 colon)	TGI (SNB-19 CNS)	TGI (SR leukemia) [µM]	TGI (DU-145 prostate)	TGI (HS 578T breast)	GI50 (786-0 renal)	GI50 (A549 NSCLC)	GI50 (ACHN renal)	GI50 (DU-145 prostate)	GI50 (HS 578T breast)	GI50 (MDA-MB-231 breast)	TGI (MDA-MB-231 breast)	GI50 (SK-OV-3 ovarian)	TGI (SK-OV-3 ovarian)	GI50 (SNB-19 CNS)	GI50 (HCT-15 colon)	GI50 (SR leukemia) [µM]
Cn1c(O)c(C=N)c(=O)n(C)c1=O	> 100 µM	> 100 µM	> 100 µM	> 100 µM	> 100 µM	> 100	–	–	–	–	–	–	–	–	–	–	–	–	–	–
CCOC(=O)CC(=O)N(c1ccc(OC)cc1)C(C(=O)OC)c1ccccc1 (configuration not stated)	> 100 µM	> 100 µM	> 100 µM	> 100 µM	> 100 µM	> 100	> 100 µM	> 100 µM	–	–	–	–	–	–	–	–	–	–	–	–
CCCCN(CCCC)c1cc(C(=O)CCCCCN)c2ccccc2n1	3.27 µM	3.38 µM	3.14 µM	–	3.12 µM	–	3.41 µM	6.05 µM	1.83 µM	1.78 µM	1.76 µM	1.89 µM	2.13 µM	1.62 µM	3.09 µM	1.76 µM	3.16 µM	1.65 µM	–	–
CCC1(O)C(=O)OCc2c1cc1n(c2=O)Cc2c-1nc1ccccc1c2OC (configuration not stated)	0.0249 µM	1.85 µM	0.06 µM	23.7 µM	> 29.2 µM	< 0.01	–	–	–	–	–	–	–	–	–	–	7.47 µM	–	–	–
CC1=C(C)C(=O)c2c(cc3c4ccccc4ccn23)C1=O	> 100 µM	> 100 µM	> 100 µM	> 100 µM	> 100 µM	–	–	–	–	–	–	–	–	–	–	–	> 100 µM	–	–	–
O=S(=O)(c1ccc2c(c1)C(=NO)c1cc(S(=O)(=O)N3CCCCC3)ccc1-2)N1CCCCC1	0.499 µM and 0.342 µM	> 1 µM and 0.371 µM	0.389 µM and 0.319 µM	> 1 µM and 0.323 µM	0.962 µM and 0.326 µM	–	0.397 µM and 0.296 µM	0.772 µM and 0.48 µM	0.212 µM and 0.186 µM	> 1 µM and 0.187 µM	0.188 µM and 0.163 µM	0.206 µM and 0.154 µM	0.24 µM and 0.198 µM	0.179 µM and 0.0562 µM	0.36 µM and 0.112 µM	0.187 µM and 0.162 µM	0.362 µM and 0.311 µM	0.303 µM and 0.184 µM	0.914 µM and 0.173 µM	–
CC12Oc3ccc4ccccc4c3C1c1c(ccc3ccccc13)O2 (configuration not stated)	> 100 µM	> 100 µM	> 100 µM	–	> 100 µM	> 100	–	–	–	–	–	–	–	–	–	–	> 100 µM	–	–	–
CCOC(=O)/C(=C/c1cc(OC)ccc1OC)CC(=O)O	> 31.6 µM	> 100 µM	> 100 µM	> 62.7 µM	> 100 µM	> 100	–	–	–	–	–	–	–	–	–	–	> 100 µM	–	–	–
OCC1OC(n2ccc3cnccc32)CC1O (configuration not stated)	> 100 µM	> 100 µM	> 100 µM	> 100 µM	> 100 µM	> 100	–	–	–	–	–	–	–	–	–	–	> 100 µM	–	–	–
Clc1ccc(-c2nc(-c3c[nH]c4ncccc34)cs2)cc1	> 100 µM	> 100 µM	> 100 µM	> 100 µM	> 100 µM	–	> 100 µM	> 100 µM	> 100 µM	> 100 µM	> 100 µM	> 100 µM	> 100 µM	> 100 µM	> 100 µM	> 100 µM	> 100 µM	> 100 µM	> 100 µM	–
Cc1cc(N2CCOCC2)nc(N(CCNc2ccnc3cc(Cl)ccc23)Cc2ccco2)n1	4.91 µM	39.1 µM	15.3 µM	34.9 µM	48.1 µM	–	26.5 µM	10.1 µM	2.14 µM	6.2 µM	3.46 µM	6.85 µM	2.64 µM	3.16 µM	13.4 µM	7.01 µM	22 µM	6.49 µM	3.6 µM	–
O=[N+]([O-])c1ccc(Oc2cccnc2)c([N+](=O)[O-])c1	26.5 µM	–	13 µM	> 100 µM	> 100 µM	> 100	7.44 µM	> 100 µM	3.43 µM	–	3.34 µM	2.96 µM	46 µM	2.9 µM	11.6 µM	3.28 µM	9.73 µM	24.3 µM	3.75 µM	4.19
Cc1oncc1C(=O)Nc1ccc(C(F)(F)F)cc1	> 100 µM	> 100 µM	> 100 µM	> 100 µM	> 100 µM	–	> 100 µM	> 100 µM	54.5 µM	39.8 µM	41.7 µM	56.1 µM	54.5 µM	25.9 µM	> 100 µM	> 100 µM	> 100 µM	> 100 µM	14.1 µM	–
CC1C(=O)CCC1C(Sc1ccccc1)(Sc1ccccc1)Sc1ccccc1 (configuration not stated)	> 100 µM	> 100 µM	> 100 µM	> 100 µM	> 100 µM	–	–	–	–	–	–	–	–	–	–	–	> 100 µM	–	–	–
COC1OC(COCc2ccc(Cl)cc2)C(OCc2ccc(Cl)cc2)C1O (configuration not stated)	30.8 µM	37.5 µM	40.2 µM	32.3 µM	32.4 µM	–	–	–	–	–	–	–	–	–	–	–	65.9 µM	–	–	–
C=CC[Se]C(=O)c1ccccc1OC(C)=O	3.49 µM	> 100 µM	3.21 µM	5.09 µM	1.66 µM	19.2	11.6 µM	6.24 µM	1.88 µM	0.769 µM	1.76 µM	3.08 µM	1.83 µM	–	–	1.2 µM	2.54 µM	0.493 µM	2.12 µM	2.41
COc1cc(-c2nn(C)nc2-c2cc3ccccc3s2)cc(OC)c1OC	> 100 µM	> 100 µM	> 100 µM	> 100 µM	> 100 µM	–	> 100 µM	> 100 µM	0.312 µM	0.169 µM	0.293 µM	0.263 µM	0.27 µM	1.6 µM	> 100 µM	0.311 µM	> 100 µM	0.254 µM	0.0587 µM	–
CCOC(=O)NC(=O)c1cn(CCCCCCCCCCC(=O)N2CCN(CCn3cc(C(=O)NC(=O)OCC)c(=O)[nH]c3=O)CC2)c(=O)[nH]c1=O	> 100 µM	> 100 µM	> 100 µM	> 100 µM	> 100 µM	–	–	–	–	–	–	–	–	–	–	–	> 100 µM	–	–	–
